What all share (type): physicochemical
Data set [1] is described as follows: Aerosol formulation with propellant R-134a: solution formation and sprayability. Here is the method:
5.33 g of a 10 wt % solution of bupivacaine in a composition containing 70:30 SAIB/NMP, prepared as described in U.S. Pat. No. 5,747,058, was added to an aerosol container. 14.32 g of propellant R-134a (1,1,1,2-tetrafluoroethane) was added.
5.44 g of a 10 wt % solution of bupivacaine in a composition containing 70:30 SAIB/NMP, prepared as described in U.S. Pat. No. 5,747,058, was added to an aerosol container. 16.55 g. of propellant R-134a (1,1,1,2-tetrafluoroethane) was added.
0.87 g of bupivacaine base was added to an aerosol container. 8.47 g of an SAIB/propylene carbonate solution (70:30) containing 2.5 wt % of a biodegradable polymer (65:35 DLPLG) was added to the container. 0.98 g of ethanol was added to help the drug dissolve. Once dissolved, approximately 16 g of propellant R-134a (1,1,1,2-tetrafluoroethane) was added.

Data set [2] in a line: In vitro release of bupivacaine from precipitated drops into buffer (UV-vis 265 nm). Here is the method:
CAPROL 10G4O (decaglycerol tetraoleate) was dissolved in benzyl benzoate at a weight ratio of 50:50. Bupivacaine was dissolved in this mixture at a concentration of 8.75 wt %. Drops weighing approximately 100 mg were precipitated into a test tube containing 40 mL of buffer. Samples of the buffer were removed at specified time points and replaced with fresh buffer. The samples were analyzed by UV-vis spectrophotometry at 265 nm to determine the concentration of bupivacaine in each buffer sample. At 4 hours, less than 7.5 wt % of the bupivacaine in the drop had been released to the buffer. At 48 hours, around 24.0 wt % of the bupivacaine had been released.
The 1,6-hexanediol lactate ε-hydroxycaproic acid produced in Example 1 was dissolved in N-methylpyrrolidone at a weight ratio of 70:30. 10 wt % bupivacaine base was then added to this mixture and dissolved. Drops weighing approximately 100 mg were precipitated into 40 mL buffer. Samples of buffer were removed at specified times and replaced with fresh buffer. Buffer samples were analyzed by UV-vis spectrophotometry at 265 nm to determine the concentration of bupivacaine in each buffer sample. At 4 hours, around 4.1 wt % of the bupivacaine contained in the precipitated drop had been released. At 24 hours, around 8.6 wt % of the bupivacaine had been released.

The nature of data set [3]: Dissolution of AZT and ddC SAIB formulations in soft gelatin capsules (USP XXIII Apparatus 2, Method B). On the procedure: Zidovudine (AZT) and dideoxycytodine (ddC) suspensions were prepared by mixing drug with SAIB/solvent solutions with and without a cellulosic coexcipient. Approximately 1 g of each formulation was filled into soft gelatin capsules, which were heat sealed. Dissolution profiles were determined using Apparatus 2, Method B (USP XXIII) at a paddle speed of 50 rpm. Individual gelcaps were placed in separate dissolution vessels, and samples of the buffer in each vessel were obtained at 0.25, 0.5, 1, 2, 3, 6, and 24 hours. The samples were analyzed at 266 and 272 nm on a Perkin Elmer Lambda 20 UV-vis spectrophotometer for AZT and ddC drug content, respectively.

Data set [4] is described as follows: Dissolution of SAIB in propellants. The note with it: propellants 134a and 227, levels of 5 and 10 wt %. Here is the method: SAIB was dissolved in propellants 134a (1,1,1,2-tetrafluoroethane) and 227 (1,1,1,2,3,3,3-heptafluoropropane) at levels of 5 and 10 wt %.
Data set [5] can be described thus: In vitro release of paclitaxel and 5-FU from SAIB formulations into buffer (UV-vis). Particulars: for cumulative release: after 7 days, 37° C. On the procedure: Solutions of SAIB in the appropriate solvent were prepared with and without the incorporation of an additive. The active was weighed into a test tube and the SAIB/mixture was added and mixed thoroughly to yield a solution or suspension at the desired drug loading. Single drops of the mixture were precipitated into buffer by injection with standard syringes and needles. Samples were maintained at 37° C. in a shaker, sampled periodically, and analyzed by UV-vis spectrophotometry for active release. Paclitaxel and 5-FU samples were analyzed at 232 nm and 266 nm, respectively.

This note sets out measurements from patent US7833543B2, “High viscosity liquid controlled delivery system and medical or surgical device” (Durect Corporation, priority 1995, dated 2010).

Consider `CCCCN1CCCCC1C(=O)Nc1c(C)cccc1C` (stereo not shown) [bupivacaine], for which the “sprayability of aerosol mixture” value is listed as “easily sprayed with no bubbling or foaming” in data set [1] (0.87 g bupivacaine base, 8.47 g SAIB/propylene carbonate (70:30) with 2.5 wt % 65:35 DLPLG, 0.98 g ethanol, approx. 16 g R-134a); “easily sprayed with no bubbling or foaming” in data set [1] (5.33 g of 10 wt % bupivacaine in 70:30 SAIB/NMP + 14.32 g propellant R-134a); “easily sprayed with no bubbling or foaming” in data set [1] (5.44 g of 10 wt % bupivacaine in 70:30 SAIB/NMP + 16.55 g propellant R-134a). In addition, the “bupivacaine contained in the precipitated drop released” value in data set [2] (1,6-hexanediol lactate ε-hydroxycaproic acid (Example 1)/N-methylpyrrolidone 70:30, 10 wt % bupivacaine base, 4 hours) is “around 4.1 wt %”. The bupivacaine released entry in data set [2] (1,6-hexanediol lactate ε-hydroxycaproic acid (Example 1)/N-methylpyrrolidone 70:30, 10 wt % bupivacaine base, 24 hours) is given as “around 8.6 wt %”; in data set [2] (CAPROL 10G4O (decaglycerol tetraoleate)/benzyl benzoate 50:50, 8.75 wt % bupivacaine, 48 hours), “around 24.0 wt %”. Also, in data set [2] (CAPROL 10G4O (decaglycerol tetraoleate)/benzyl benzoate 50:50, 8.75 wt % bupivacaine, 4 hours), the “bupivacaine in the drop released to the buffer” value was “less than 7.5 wt %”.
For the compound `Cc1cn([C@H]2C[C@H](N=[N+]=[N-])[C@@H](CO)O2)c(=O)[nH]c1=O` [AZT, Zidovudine], the cumulative percent released in data set [3] (11.1 wt % AZT in 70:30 SAIB/Migylol 810, 2 hours) is 104.1%; in data set [3] (11.1 wt % AZT in 85:15 SAIB/EtOH, 2 hours), 71.2%; in data set [3] (active loading doubled to 22.2 wt % in 85:15 SAIB/EtOH) it was 93.8%. Moreover, the amount released is on record as 25.6% in data set [3] (11.1 wt % AZT in 85:15 SAIB/EtOH + 0.02 wt % CAB, 2 hours) and 7.6% in data set [3] (11.1 wt % AZT in 85:15 SAIB/EtOH + 0.2 wt % CAB, 2 hours).
As for `Nc1ccn([C@H]2CC[C@@H](CO)O2)c(=O)n1` [ddC, dideoxycytodine], the cumulative percent released in data set [3] (0.225 wt % ddC in 70:30 SAIB/Migylol 810, 2 hours) was 74.2%; in data set [3] (0.225 wt % ddC in 85:15 SAIB/EtOH, 2 hours) it was 59.5%. In addition, the amount released in data set [3] (0.225 wt % ddC in 85:15 SAIB/EtOH + 0.5 wt % CAB, 2 hours) came to 39.4%; in data set [3] (0.225 wt % ddC in 85:15 SAIB/EtOH + 1.0 wt % CAB, 2 hours), 13.5%.
Consider sucrose acetate isobutyrate [SAIB], for which the “appearance on dissolution in propellants” value in data set [4] was “Clear solutions were formed”.
With `CC(=O)O[C@H]1C(=O)[C@@]2(C)[C@H]([C@H](OC(=O)c3ccccc3)[C@]3(O)C[C@H](OC(=O)[C@H](O)[C@@H](NC(=O)c4ccccc4)c4ccccc4)C(C)=C1C3(C)C)[C@]1(OC(C)=O)CO[C@@H]1C[C@@H]2O` [paclitaxel], the percent released in data set [5] (25 mg/mL paclitaxel in 85:15 SAIB/EtOH + 5 wt % Cremophor EL, after two days in vitro) was 77.0%; in data set [5] (25 mg/mL paclitaxel in 85:15 SAIB/EtOH, no surfactant, after two days in vitro), 56.0%. Moreover, the results for the cumulative release in data set [5] (drug loading 5 mg/mL), in data set [5] (drug loading 25 mg/mL) and in data set [5] (drug loading 50 mg/mL) were 106.4%, 85.9% and 33.8%, respectively.
As for `O=c1[nH]cc(F)c(=O)[nH]1` [Example 5-FU, 5-fluorouracil], the percent released is 106.0% in data set [5] (10 mg/mL 5-FU in 85:15 SAIB/EtOH + 5 wt % Cremophor EL, after two days) and 80.6% in data set [5] (10 mg/mL 5-FU in 85:15 SAIB/EtOH, no surfactant, after two days). Further, in data set [5] (10 mg/mL 5-FU in 85:15 SAIB/EtOH + Pluronic L-101, after two days), the amount released was 102.0%.
